Measured values taken from patent US8940896B2, “Tetra-cyclic carboline derivatives useful in the inhibition of angiogenesis” (PTC Therapeutics, Inc., priority 2004, dated 2015).
pEC50: −log10 of the molar value.

Tested on: VEGF
Test: Hypoxia-inducible endogenous VEGF expression, VEGF ELISA assay
Format: cell-based
Conditions: HeLa cells, hypoxic conditions (1% O2, 5% CO2), VEGF in conditioned media
Experimental: The ability of the compounds of the invention to modulate hypoxia-inducible endogenous VEGF expression may be analyzed as follows. VEGF protein levels may be monitored by an ELISA assay (R&D Systems). Briefly, HeLa cells may be cultured for 24-48 hours under hypoxic conditions (1% O2, 5% CO2, balanced with nitrogen) in the presence or absence of a compound of the invention. The conditioned media may then be assayed by ELISA, and the concentration of VEGF calculated from the standard ELISA curve of each assay.
A dose-response analysis may be performed using the ELISA assay and conditions described above. The conditions for the dose-response ELISA are analogous to those described above. A series of, e.g., seven different concentrations may be analyzed. In parallel, a dose-response cytotoxicity assay may be performed using CellTiter Glo (Promega) under the same conditions as the ELISA to ensure that the inhibition of VEGF expression was not due to the cytotoxicity. Dose-response curves may be plotted using percentage inhibition versus concentration of the compound, and EC50 and CC50 values may be generated for each compound with the maximal inhibition set as 100% and the minimal inhibition as 0%.

SMILES | pEC50 (Homo sapiens, HeLa) | pEC50
COc1ccccc1C1c2[nH]c3ccccc3c2CC2C(=O)N(C(C)C)C(=S)N21 (centres unmarked) [Compound 86] | < 6.00 | 
COc1ccccc1C1c2[nH]c3ccccc3c2CC2C(=O)N(C3CCCCC3)C(=S)N21 (centres unmarked) [Compound 87] | < 6.00 | 
COc1ccccc1C1c2[nH]c3ccccc3c2CC2C(=O)N(c3ccccc3)C(=S)N21 (centres unmarked) [Compound 88] | < 6.00 | 
COc1ccccc1C1c2[nH]c3ccccc3c2CC2C(=O)N(c3ccccc3C)C(=S)N21 (centres unmarked) [Compound 89] | < 6.00 | 
COc1ccccc1C1c2[nH]c3ccccc3c2CC2C(=O)N(c3cccc(C)c3)C(=S)N21 (centres unmarked) [Compound 90] | < 6.00 | 
COc1ccccc1C1c2[nH]c3ccccc3c2CC2C(=O)N(c3ccc(C)cc3)C(=S)N21 (centres unmarked) [Compound 91] | < 6.00 | 
COc1ccccc1C1c2[nH]c3ccccc3c2CC2C(=O)N(c3cccc(F)c3)C(=S)N21 (centres unmarked) [Compound 92] | < 6.00 | 
COc1ccccc1C1c2[nH]c3ccccc3c2CC2C(=O)N(Cc3ccccc3)C(=S)N21 (centres unmarked) [Compound 93] | < 6.00 | 
COc1ccccc1C1c2[nH]c3ccccc3c2CC2C(=O)N(CCc3ccccc3)C(=S)N21 (centres unmarked) [Compound 94] | < 6.00 | 
CCC(C)N1C(=O)C2Cc3c([nH]c4ccc(Br)cc34)C(c3ccc(C(C)C)cc3)N2C1=S (centres unmarked) [Compound 95] | > 8.10 | 
Cc1ccc(N2C(=O)C3Cc4c([nH]c5ccc(Br)cc45)C(c4ccc(C(C)C)cc4)N3C2=S)cc1 (centres unmarked) [Compound 96] | > 8.10 | 
CC(C)c1ccc(C2c3[nH]c4ccc(Br)cc4c3CC3C(=O)N(C4CCCCC4)C(=S)N32)cc1 (centres unmarked) [Compound 97] | > 8.10 | 
CCCCCN1C(=O)C2Cc3c([nH]c4ccc(Br)cc34)C(c3ccc(C(C)C)cc3)N2C1=S (centres unmarked) [Compound 98] | > 8.10 | 
COc1ccc(C2c3[nH]c4ccc(Br)cc4c3CC3C(=O)N(c4cccnc4)C(=S)N32)cc1 (centres unmarked) [Compound 99] | > 8.10 | 
CN1C(=O)C2Cc3c([nH]c4ccc(Br)cc34)C(c3ccc(OCCN4CCOCC4)cc3)N2C1=S (centres unmarked) [Compound 100] | 7.40 to 8.10 | 
CCN1C(=O)C2Cc3c([nH]c4ccc(Br)cc34)C(c3ccc(OCCN4CCOCC4)cc3)N2C1=S (centres unmarked) [Compound 101] | > 8.10 | 
CCCN1C(=O)C2Cc3c([nH]c4ccc(Br)cc34)C(c3ccc(OCCN4CCOCC4)cc3)N2C1=S (centres unmarked) [Compound 102] | 7.40 to 8.10 | 
CC(C)N1C(=O)C2Cc3c([nH]c4ccc(Br)cc34)C(c3ccc(OCCN4CCOCC4)cc3)N2C1=S (centres unmarked) [Compound 103] | > 8.10 | 
O=C1C2Cc3c([nH]c4ccc(Br)cc34)C(c3ccc(OCCN4CCOCC4)cc3)N2C(=S)N1C1CCCC1 (centres unmarked) [Compound 104] | > 8.10 | 
COCCCN1C(=O)C2Cc3c([nH]c4ccc(Br)cc34)C(c3ccc(OCCN4CCOCC4)cc3)N2C1=S (centres unmarked) [Compound 105] | 7.40 to 8.10 | 
O=C1C2Cc3c([nH]c4ccc(Br)cc34)C(c3ccc(OCCN4CCOCC4)cc3)N2C(=S)N1CC1CCCO1 (centres unmarked) [Compound 106] | 6.70 to 7.40 | 
COCCOc1ccc(C2c3[nH]c4ccc(Cl)cc4c3CC3C(=O)N(C)C(=S)N32)cc1 (centres unmarked) [Compound 107] | > 8.10 | 

SMILES | pEC50 (Homo sapiens, HeLa) | pEC50
COCCOc1ccc(C2c3[nH]c4ccc(Cl)cc4c3CC3C(=O)N(C(C)C)C(=S)N32)cc1 (centres unmarked) [Compound 108] | 7.40 to 8.10 | 
COCCOc1ccc(C2c3[nH]c4ccc(Cl)cc4c3CC3C(=O)N(C4CCCC4)C(=S)N32)cc1 (centres unmarked) [Compound 109] | 7.40 to 8.10 | 
COCCCN1C(=O)C2Cc3c([nH]c4ccc(Cl)cc34)C(c3ccc(OCCOC)cc3)N2C1=S (centres unmarked) [Compound 110] | 7.40 to 8.10 | 
COCCOc1ccc(C2c3[nH]c4ccc(Br)cc4c3CC3C(=O)N(C4CCCCC4)C(=S)N32)cc1 (centres unmarked) [Compound 111] | > 8.10 | 
CN(C)CCCOc1ccc(C2c3[nH]c4ccc(Br)cc4c3CC3C(=O)N(C4CCCCC4)C(=S)N32)cc1 (centres unmarked) [Compound 112] | > 8.10 | 
O=C1C2Cc3c([nH]c4ccc(Cl)cc34)C(c3ccc(OCCN4CCOCC4)cc3)N2C(=S)N1C1CCCCC1 (centres unmarked) [Compound 113] | > 8.10 | 
CN(C)CCCOc1ccc(C2c3[nH]c4ccc(Cl)cc4c3CC3C(=O)N(C4CCCCC4)C(=S)N32)cc1 (centres unmarked) [Compound 114] | 6.70 to 7.40 | 
O=C1C2Cc3c([nH]c4ccc(Br)cc34)C(c3ccc(OCCN4CCOCC4)cc3)N2C(=S)N1C1CCCCC1 (centres unmarked) [Compound 115] | > 8.10 | 
COCCOc1ccc(C2c3[nH]c4ccc(Cl)cc4c3CC3C(=O)N(C4CCCCC4)C(=S)N32)cc1 (centres unmarked) [Compound 116] | > 8.10 | 
COCCOc1ccc(C2c3[nH]c4ccc(Br)cc4c3CC3C(=O)N(C4CCCCC4)C(=S)N32)cc1 (centres unmarked) [Compound 117] |  | > 8.10
CC(C)N1C(=O)C2Cc3c([nH]c4ccc(Br)cc34)C(c3ccc(N4CCOCC4)cc3)N2C1=O (centres unmarked) [Compound 118] | 6.70 to 7.40 | 
CC(C)N1C(=O)C2Cc3c([nH]c4ccc(Br)cc34)C(c3ccc(-c4ccncc4)cc3)N2C1=O (centres unmarked) [Compound 120] | 6.00 to 6.70 | 
CC(C)N1C(=O)C2Cc3c([nH]c4ccc(Br)cc34)C(c3ccc(-c4cncnc4)cc3)N2C1=O (centres unmarked) [Compound 121] | 6.70 to 7.40 | 
CC(C)N1C(=O)C2Cc3c([nH]c4ccc(Cl)cc34)C(c3ccc(N4CCOCC4)cc3)N2C1=O (centres unmarked) [Compound 122] | 6.00 to 6.70 | 
CC(C)N1C(=O)C2Cc3c([nH]c4ccc(Cl)cc34)C(c3ccc(-n4ccnc4)cc3)N2C1=O (centres unmarked) [Compound 123] | 6.00 to 6.70 | 
CC(C)N1C(=O)C2Cc3c([nH]c4ccc(Cl)cc34)C(c3ccc(N4CCN(C)CC4)cc3)N2C1=O (centres unmarked) [Compound 124] | 6.70 to 7.40 | 
CC(C)N1C(=O)C2Cc3c([nH]c4ccc(Cl)cc34)C(c3ccc(-c4ccncc4)cc3)N2C1=O (centres unmarked) [Compound 125] | 6.00 to 6.70 | 
CC(C)N1C(=O)C2Cc3c([nH]c4ccc(Cl)cc34)C(c3ccc(-c4cncnc4)cc3)N2C1=O (centres unmarked) [Compound 126] | 6.00 to 6.70 | 
CC(C)N1C(=O)C2Cc3c([nH]c4ccc(Br)cc34)C(c3ccc(N4CCOCC4)cc3)N2C1=S (centres unmarked) [Compound 127] | > 8.10 | 
CC(C)N1C(=O)C2Cc3c([nH]c4ccc(Br)cc34)C(c3ccc(-n4ccnc4)cc3)N2C1=S (centres unmarked) [Compound 128] | 7.40 to 8.10 | 
CC(C)N1C(=O)C2Cc3c([nH]c4ccc(Br)cc34)C(c3ccc(N4CCN(C)CC4)cc3)N2C1=S (centres unmarked) [Compound 129] | 7.40 to 8.10 | 
CC(C)N1C(=O)C2Cc3c([nH]c4ccc(Br)cc34)C(c3ccc(-c4ccncc4)cc3)N2C1=S (centres unmarked) [Compound 130] | 6.70 to 7.40 | 

SMILES | pEC50 (Homo sapiens, HeLa) | pEC50
CC(C)N1C(=O)C2Cc3c([nH]c4ccc(Br)cc34)C(c3ccc(-c4cncnc4)cc3)N2C1=S (centres unmarked) [Compound 131] | 7.40 to 8.10 | 
CC(C)N1C(=O)C2Cc3c([nH]c4ccc(Cl)cc34)C(c3ccc(-n4ccnc4)cc3)N2C1=S (centres unmarked) [Compound 132] | 6.70 to 7.40 | 
CC(C)N1C(=O)C2Cc3c([nH]c4ccc(Cl)cc34)C(c3ccc(N4CCN(C)CC4)cc3)N2C1=S (centres unmarked) [Compound 133] | 6.70 to 7.40 | 
CC(C)N1C(=O)C2Cc3c([nH]c4ccc(Cl)cc34)C(c3ccc(-c4ccncc4)cc3)N2C1=S (centres unmarked) [Compound 134] | 7.40 to 8.10 | 
CC(C)N1C(=O)C2Cc3c([nH]c4ccc(Cl)cc34)C(c3ccc(-c4cncnc4)cc3)N2C1=S (centres unmarked) [Compound 135] | 6.70 to 7.40 | 
COC(=O)CN1C(=O)C2Cc3c([nH]c4ccc(Br)cc34)C(c3ccc(OC)cc3)N2C1=S (centres unmarked) [Compound 136] | 6.70 to 7.40 | 
CCOC(=O)CN1C(=O)C2Cc3c([nH]c4ccc(Br)cc34)C(c3ccc(OC)cc3)N2C1=S (centres unmarked) [Compound 137] | 7.40 to 8.10 | 
COc1ccc(C2c3[nH]c4ccc(Br)cc4c3CC3C(=O)N(c4ccc(Cl)cc4)C(=S)N32)cc1 (centres unmarked) [Compound 138] | > 8.10 | 
COC(=O)c1ccc(N2C(=O)C3Cc4c([nH]c5ccc(Br)cc45)C(c4ccc(OC)cc4)N3C2=S)cc1 (centres unmarked) [Compound 139] | 7.40 to 8.10 | 
COC(=O)c1cccc(N2C(=O)C3Cc4c([nH]c5ccc(Br)cc45)C(c4ccc(OC)cc4)N3C2=S)c1 (centres unmarked) [Compound 140] | > 8.10 | 
COc1ccc(C2c3[nH]c4ccc(Br)cc4c3CC3C(=O)N(c4ccc(OC(C)=O)cc4)C(=S)N32)cc1 (centres unmarked) [Compound 141] | > 8.10 | 
COc1ccc(C2c3[nH]c4ccc(Br)cc4c3CC3C(=O)N(c4cccc(OC)c4)C(=S)N32)cc1 (centres unmarked) [Compound 142] | > 8.10 | 
COc1ccc(C2c3[nH]c4ccc(Br)cc4c3CC3C(=O)N(CC4CCCO4)C(=S)N32)cc1 (centres unmarked) [Compound 143] | 7.40 to 8.10 | 
CCOC(=O)C(C)N1C(=O)C2Cc3c([nH]c4ccc(Br)cc34)C(c3ccc(OC)cc3)N2C1=S (centres unmarked) [Compound 144] | 7.40 to 8.10 | 
CCOC(=O)CC(C)N1C(=O)C2Cc3c([nH]c4ccc(Br)cc34)C(c3ccc(OC)cc3)N2C1=S (centres unmarked) [Compound 145] | > 8.10 | 
COc1ccc(C2c3[nH]c4ccc(Br)cc4c3CC3C(=O)N(c4cccc(C#N)c4)C(=S)N32)cc1 (centres unmarked) [Compound 146] | > 8.10 | 
COC(=O)N1C(=O)C2Cc3c([nH]c4ccc(Br)cc34)C(c3ccc(OC)cc3)N2C1=S (centres unmarked) [Compound 147] | 6.70 to 7.40 | 
COCCOc1ccc([C@@H]2c3[nH]c4ccc(Br)cc4c3C[C@H]3C(=O)N(C4CCCCC4)C(=S)N23)cc1 [Compound 148] | 6.00 to 6.70 | 
O=C1C2Cc3c([nH]c4ccc(Br)cc34)C(c3ccc(OCCCn4ccnn4)cc3)N2C(=S)N1c1ccc(Cl)cc1 (centres unmarked) [Compound 149] | > 8.10 | 
CC(C)N1C(=O)C2Cc3c([nH]c4ccc(Br)cc34)C(c3ccc(OCCCN4CCCC4)cc3)N2C1=S (centres unmarked) [Compound 150] | > 8.10 | 
CC(C)N1C(=O)C2Cc3c([nH]c4ccc(Br)cc34)C(c3ccc(OCCCN4CCCCC4)cc3)N2C1=S (centres unmarked) [Compound 151] | > 8.10 | 
